# Measured values reported in paper PMC2857364, “Inhibition of Nitric Oxide (NO) Production in Lipopolysaccharide (LPS)-Activated Murine Macrophage RAW 264.7 Cells by the Norsesterterpene Peroxide, Epimuqubilin A” (Marine Drugs, 2010).
# Structures can show the parent of a compound that is named as a salt. Where two headings read alike, the source gives them in different places.
# Assays:
# [1] = system: GSK-3β; type: cell-based, yeast; conditions: disk alone 7 mm
# Method: Disruption of four yeast GSK-3 homologs (MCK1, MDS1, MRK1 and YOL128C) in gsk-3 null mutant confers a temperature-sensitive phenotype (growth defect at 37 °C), that can be suppressed by the expression of cloned mammalian GSK-3β [29]. Inhibition of GSK-3β should therefore mimic the phenotype of the gsk-3 null mutant, indicated by growth inhibition of transformant of gsk-3 null with pKT10-GSK-3β only at 37 °C. A genetically modified yeast strain, H10075 with genotype {MAT α his3 leu2 ura3 trp1 ade2 mck1::TRP1 mds1::HIS3 mrk1 yol128c::LEU2 [pKT10-GSK-3β], was grown in 5 mL of liquid media of SC minus uracil, shaking, at 37 °C for 2 days. Four hundred-μL of the yeast culture was added to 100 mL of SC minus uracil agar [0.67% yeast nitrogen base without amino acids and ammonium sulfate, 0.5% ammonium sulfate, 2% D-(+)-glucose anhydrate, 1 mL each of 0.03 mg/mL of adenine (hemisulfate salt), 0.03 mg/mL of L-tryptophan, 0.03 mg/mL of L-leucine, 0.03 mg/mL of L-histidine and 1.5% bacteriological agar, pH 5.6]. […] The Petri dishes were incubated at both 25 °C and 37 °C for 72 hours. Three phenotypes are observed on yeast plates. A clear zone of inhibition (ZOI) at 37 °C and no ZOI at 25 °C indicate that the agent tested inhibits the GSK-3β pathway. The clear zones of inhibition at both 37 and 25 °C of equal width indicate that the agents are cytotoxic. Plates that have a negative phenotype are plates that have no observable ZOI. […] The assays were performed in duplicate.
# [2] = system: RAW 264.7 cells; assay: SRB assay for cytotoxic effect in RAW 264.7 cells under the NO assay condition; type: cell-based, murine; conditions: for Cytotoxic effects: at 12.8 μM, RAW 264.7 cells, SRB
# Method: (§1) In addition, to determine whether the inhibitory effects of compounds on NO production were due to specific pharmacological activities, or non-specific cell cytotoxicity leading to false positive results, RAW 264.7 cell viability was determined by using the sulforhodamine B (SRB) protein staining method. Compounds 1 and 6 mediated a modest cytototoxic response, with 36.1 and 43.0% percent survival, respectively, at the highest concentration tested (20 μg/mL; 51.0 μM). Cytotoxic effects diminished with lower concentrations. […] Further experiments will be performed to determine whether epimuqubilin A inhibits nitrite production via suppression of iNOS expression in the levels of protein.
# (§2) The inhibitory effects of samples on NO production were evaluated in LPS-activated murine macrophage RAW 264.7 cells, using a method modified from that previously reported. Briefly, RAW 264.7 cells were cultured in Dulbecco’s modified Eagle’s medium (DMEM) supplemented with penicillin G sodium (100 units/mL), streptomycin sulfate (100 μg/mL), amphotericin B (0.25 μg/mL), and 10% fetal bovine serum (FBS). The cells were seeded in 96-well culture plates with 1 × 10^5 cells/well and incubated for 24 h at 37°C in a humidified atmosphere containing 5% CO2. The cells were treated with samples dissolved in phenol red-free DMEM for 30 min followed by 1 μg/mL of LPS treatment for 20 h. The amount of NO in the cultured medium was measured by the Griess reagent. The standard curve was created by using known concentrations of sodium nitrite, and the absorbance was measured at 540 nm. To evaluate the cytotoxic effect of samples in RAW 264.7 cells in the assay condition, SRB assay was performed. Briefly, after the fixation with 10% trichloroacetic acid (TCA), cells were stained with 0.4% SRB solution in 1% acetic acid followed by dissolving bound SRB in 10 mM Tris-buffer. The optical density was determined at 515 nm.
# [3] = as above; type: cell-based, murine; conditions: mouse, RAW 264.7 macrophage cells (LPS-activated); for activity at 20 h, 20 μg/mL: 20 μg/mL after 20 h incubation in RAW 264.7 cells, read-out: Cytotoxic activity % Survival; for IC50 at 20 h: RAW 264.7 cells, SRB
# Method: as §1, §2
# [4] = system: NO production in LPS-activated murine macrophage RAW 264.7 cells; assay: Assay for NO inhibitory effect using LPS-activated RAW 264.7 cells (Griess reagent); type: cell-based; conditions: for IC50: LPS (1 μg/mL, 20 h)-activated RAW 264.7 cells
# Method: as §2
SMILES,"Yeast GSK-3β zone of inhibition ([1]; 25 °C, 20 μg/disk)","Yeast GSK-3β zone of inhibition ([1]; 37 °C, 20 μg/disk)","Yeast GSK-3β zone of inhibition ([1]; 37 °C, 40 μg/disk)","activity at 20 h, 20 μg/mL [3]","IC50 ([4]; Mus musculus, RAW264.7, 20 h)",also measured
"CC1=C(CC/C(C)=C/CC[C@@]2(C)CC[C@@H]([C@H](C)C(=O)O)OO2)C(C)(C)CCC1 [Compound 1, epimuqubilin A]",no ZOI,8 mm,10–13 mm,36.1%,7.4 µM,"Yeast GSK-3β zone of inhibition ([1]; 37 °C, 20 μg/disk, listed as Epimuqubilin A (1)): 9 mm; Yeast GSK-3β zone of inhibition ([1]; 37 °C, 40 μg/disk, listed as Epimuqubilin A (1)): 10 mm; Cytotoxic effects [2]: no significant cytotoxic effects; IC50 at 20 h [3]: 37.1 µM"
"CC(=O)CCCC(C)(C)C(=O)CCC(C)=CCCC1(C)CCC(C(C)C(=O)O)OO1 (stereo not drawn) [Compound 2, muqubilone B]",,,,99%,23.8 µM,
COC(=O)C(C)C1CCC(C)(CCC=C(C)CCC=C(C)CCC=C(C)C)OO1 (stereo not drawn) [Compound 3],,,,> 100%,46 µM,
"C=C1CCCC(C)(C)C1(O)CC/C(C)=C/CC[C@]1(C)CC[C@H]([C@@H](C)C(=O)OC)OO1 (stereo partly drawn) [Compound 4, epimuqubilin B]",no ZOI,8 mm,10–13 mm,> 100%,25.6 µM,"Yeast GSK-3β zone of inhibition ([1]; 37 °C, 40 μg/disk, listed as Epimuqubilin B (4)): 10 mm"
"C=C1CCCC2C1(C)CCC(C)C2(C)CCC1(C)CCC(C(C)C(=O)OC)OO1 (stereo not drawn) [Compound 5, sigmosceptrellin A methyl ester]",,,,,,"Cytotoxic activity % Survival ([2]; 20 μg/mL after 20 h incubation in RAW 264.7 cells, listed as Sigmosceptrellin A methyl ester (5)): 90.6%; IC50 ([4]; listed as Sigmosceptrellin A methyl ester (5)): > 100 µM; NO inhibitory activity (in words) ([4]; LPS-activated RAW 264.7 cells): inactive"
"C=C1CCC[C@H]2[C@](C)(CC[C@]3(C)CC[C@H]([C@@H](C)C(=O)O)OO3)[C@@H](C)CC[C@]12C [Compound 6, sigmosceptrellin A]",no ZOI,8 mm,10–13 mm,43%,9.9 µM,"Yeast GSK-3β zone of inhibition ([1]; 37 °C, 5 μg/disk): 8 mm; Yeast GSK-3β zone of inhibition ([1]; 37 °C, 10 μg/disk): 10 mm; Yeast GSK-3β zone of inhibition ([1]; 37 °C, 20 μg/disk, listed as Sigmosceptrellin A (6)): 11 mm; Yeast GSK-3β zone of inhibition ([1]; 37 °C, 40 μg/disk, listed as Sigmosceptrellin A (6)): 13 mm; Cytotoxic effects [2]: no significant cytotoxic effects; IC50 at 20 h [3]: 42.7 µM"
"C=C1CCCC2C1(C)CCC(C)C2(C)CCC1(C)CCC(C(C)C(=O)OC)OO1 (stereo not drawn) [Compound 7, sigmosceptrellin B methyl ester]",,,,> 100%,65.7 µM,
"[H]/N=C(/NC)NCCC[C@H](N)C(=O)O [L-NMMA, L-N^G-Monomethyl Arginine citrate, reference compound]",,,,> 100%,25.5 µM,
"Cn1sc(=O)n(Cc2ccccc2)c1=O [TDZD-8, 4-Benzyl-2-methyl-1,2,4-thiadiazolidine-3,5-dione, reference compound]",10 mm,11 mm,15 mm,,,"Yeast GSK-3β zone of inhibition ([1]; 25 °C, 5 μg/disk): 8 mm; Yeast GSK-3β zone of inhibition ([1]; 25 °C, 10 μg/disk): 9 mm; Yeast GSK-3β zone of inhibition ([1]; 25 °C, 40 μg/disk): 12 mm; Yeast GSK-3β zone of inhibition ([1]; 37 °C, 5 μg/disk): 9 mm; Yeast GSK-3β zone of inhibition ([1]; 37 °C, 10 μg/disk): 10 mm"
